≈ marks a conversion by molar mass, not a printed value.
Assays:
physchem = settings: 25 °C
Text: Fine and highly monodispersed coloring particles intended according to aspects of the present invention may contain a dye hardly soluble in the water contained in the second liquid described later. […] The solubility parameter of the dye, however, may vary depending on the pH of the water containing it.
The solubility parameter used according to aspects of the present invention can be calculated by measuring the degree of water solubility (mol/L) of the dye by any known experimental method and then substituting the measurement into equation (1). […] For dyes such as metal complex dyes and salt dyes, the metal or salt is first removed, and then the degree of solubility is calculated using ACD/Structure Design Suite and the solubility parameter is calculated from the value.

[1] = in water; cited from earlier work

Row | solubility (physchem; pH 6, aqueous buffer) [nM] | solubility (physchem; pH 11, aqueous buffer) [nM] | Compound | Critical micelle concentration [1] [g/mL]
1 | ≤ 0.631 | – | CC1(C)Nc2cccc3c(/N=N/c4ccc(/N=N/c5ccccc5)c5ccccc45)ccc(c23)N1 [dye 1] | –
2 | ≤ 0.631 | – | Cc1cccc(Nc2cccc3c2C(=O)c2cccc(Nc4cccc(C)c4)c2C3=O)c1 [dye 2] | –
3 | 0.794 (≈ 0.387 ng/mL) | 813 (≈ 396 ng/mL) | Cc1cc(Br)c(Nc2ccc(O)c3c2C(=O)c2ccccc2C3=O)c(Br)c1 [dye 4] | –
4 | – | – | CCCCCCCCCCCCOS(=O)(=O)[O-].[Na+] [sodium dodecyl sulfate] | 0.0025

Reference: US20120190788A1, “COLORING PARTICLES” (CANON KABUSHIKI KAISHA, priority 2011, published 2012)
